Reference: patent US20240408093A1, “HETEROBIFUNCTIONAL COMPOUNDS AND THEIR USE IN TREATING DISEASE” (HALDA THERAPEUTICS OPCO, INC., priority 2022, published 2024)

Key:
KRAS G12C = biological target: T1, KRAS G12C (Homo sapiens, UniProt P01116, C118S/C51S/C80L/G12C); experiment: Release of effector protein ligand from heterobifunctional compounds, KRAS G12C; type: biochemical; conditions: detected A1-3
T1 construct: KRAS G12C C51S C80L C118S (amino acids 1-169)
Method: (§1) Exemplary heterobifunctional compounds were evaluated for the ability to release an effector protein ligand in the presence of KRAS G12C, BTK, or EGFR T790M L858R target proteins.
(§2) Samples for mass spectrometry for KRAS G12C, BTK, and EGFR T790M L858R were prepared as described above for the intact mass spectrometry target engagement experiment, respectively, except rather than flash-freezing, 20 μL of sample was quenched with 50 μL of 100% acetonitrile. As well, a buffer-only control was used to detect latent release of effector protein ligand analyte. Internal standard (IS) solution consisted of 200 ng/mL propranolol and 50 ng/mL diclofenac in methanol:water 1:1 (v/v). A 4-point calibration curve (calibration standard (CS)) consisting of each analyte was made at final concentrations of 3 nM, 30 nM, 300 nM, and 3000 nM. Unknown samples were diluted such that the unknown analyte concentration was in the linear range of the calibration curve.
(§3) Samples for all proteins were prepared and analyzed from the following:
(§4) Samples were further analyzed with AB Sciex Triple Quad 5500 system coupled with Shimadzu Prominence HPLC.

[1] = biological target: T2, KRAS G12C C51S C80L C118S (amino acids 1-169) (Homo sapiens, UniProt P01116, C118S/C51S/C80L/G12C); experiment: Intact mass spec target engagement, KRAS G12C; type: binding; conditions: 24 hours post-reaction; 5 μM KRAS G12C, 50 μM compound
T2 construct: KRAS G12C C51S C80L C118S (amino acids 1-169)
Method: (§5) Exemplary heterobifunctional compounds were evaluated for intact mass spectrometry target engagement against KRAS G12C, BTK, or EGFR T790M L858R (amino acids 669-1011; Accession Number NP_005219.2), separately.
(§6) KRAS G12C: Samples were prepared using 5 μM of KRAS G12C C51S C80L C118S (amino acids 1-169) and 50 μM of heterobifunctional compound in a buffer containing 20 mM HEPES pH 7.5, 150 mM NaCl, and 1 mM TCEP. Protein was incubated with heterobifunctional compound at RT or 37° C. for the given amounts of time then flash-frozen and stored at −80° C. until analysis. Samples were transferred to HPLC vials and injected into Dionex UltiMate 3000 FLM HPLC system with a proprietary column (2.1×50 mm, 5 μm, 1000 Å) at 0.3 mL/minute in a column compartment at 50° C. and run on a Q Exactive Hybrid Quadrupole-Orbitrap Mass Spectrometer. Ion Max source with HESI-II probe were used, with a source voltage of 3.5 kV.
(§7) Results showing ability of exemplary heterobifunctional compounds to generate a modified target protein via intact mass spectrometry are shown in Table 13 below. The amount of different components identified by mass spectrometry at 24 hours post-reaction are listed in Table 14, wherein the different components include: • Un-modified Protein—this is starting protein material (e.g., KRAS G12C, BTK, or EGFR T790M L858R) that remained unchanged in the experiment. • Elimination-Conjugate Product—this is a conjugate formed by reaction of protein with the heterobifunctional compound to form a protein conjugate of the following general formula: […]
(§8) Exemplary Other Material can include, for example, residual impurities in the protein starting material used to conduct the experiment.

BTK = biological target: T3, BTK (Homo sapiens, UniProt Q06187); experiment: Release of effector protein ligand from heterobifunctional compounds, BTK; type: biochemical; conditions: detected A1-3
T3 construct: BTK (amino acids 387-659)
T3 sequence (Q06187 387-659): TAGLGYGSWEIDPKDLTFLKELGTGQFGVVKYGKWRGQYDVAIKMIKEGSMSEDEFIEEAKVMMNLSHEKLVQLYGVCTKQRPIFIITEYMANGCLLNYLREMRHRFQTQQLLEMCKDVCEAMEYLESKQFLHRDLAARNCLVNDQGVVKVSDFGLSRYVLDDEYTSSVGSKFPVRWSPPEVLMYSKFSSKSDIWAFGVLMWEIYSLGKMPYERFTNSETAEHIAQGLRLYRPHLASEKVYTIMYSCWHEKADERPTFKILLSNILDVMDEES
Method: as §1, §2, §3, §4

[2] = biological target: T4, BTK (amino acids 387-659) (Homo sapiens, UniProt Q06187); experiment: Intact mass spec target engagement, BTK; type: binding; conditions: 24 hours post-reaction; 2 μM BTK, 20 μM compound
T4 construct: BTK (amino acids 387-659)
T4 sequence (Q06187 387-659): as above
Method: as §5
as §6, with “BTK: Samples” for “KRAS G12C: Samples”, “using 2” for “using 5”, “of BTK” for “of KRAS G12C C51S C80L C118S”, “acids 387-659)” for “acids 1-169)”, “and 20” for “and 50”, “NaCl,” for “NaCl, and”
as §7, §8

HEK293 cells = experiment: Cellular growth inhibition assay, HEK293 cells (Example 15); type: cell-based; conditions: Homo sapiens, 72 h, three days, CellTiter-Glo 2.0
Method: (§9) HEK293 and HeLa cells were cultured in DMEM medium supplemented with 10% fetal bovine serum and 1% Penn/Strep. Cells were seeded in white 384-well plates at 500 cells/well in 25 μL complete medium. Following seeding, plates were spun at 300×g for three minutes and cultured at 37° C. with 5% CO2 in a humidified tissue culture incubator.
(§10) After 24 hours, compounds were titrated in 100% DMSO and diluted in complete cell culture medium. A 25 μL aliquot of compound/media mixture was added to cells to bring total volume in the wells to 50 μL. DMSO alone was used as a negative control. Plates were then spun at 300×g for three minutes and stored at 37° C. with 5% CO2 for three days.
(§11) On Day 0 and Day 3 of compound treatment, cell viability was quantified with CellTiter-Glo 2.0 reagent (Promega). After equilibrating microplates at room temperature for 30 minutes, 25 μL CellTiter-Glo 2.0 reagent was dispensed into each well to bring total volume to 75 μL. Plates were mixed on a shaker for 2 minutes at 500 rpm, followed by a 10-minute incubation at room temperature. Following a quick spin, luminescence readings were measured with an EnVision Plate Reader. Data was normalized to DMSO treated Day 0 and Day 3 readings. […]

HeLa cells = experiment: Cellular growth inhibition assay, HeLa cells (Example 15); type: cell-based; conditions: Homo sapiens, 72 h, three days, CellTiter-Glo 2.0
Method: as §9, §10, §11

GSPT1 = biological target: T5, GSPT1 (Homo sapiens, UniProt P15170+Q96SW2); experiment: GSPT1 HiBiT degradation assay; type: cell-based; conditions: HEK293 LgBiT GSPT1 HiBiT cells, 6 hours
T5 construct: host or cells: HEK293 LgBiT / GSPT1 HiBiT CRISPR knock-in
T5 sequence (P15170 whole entry): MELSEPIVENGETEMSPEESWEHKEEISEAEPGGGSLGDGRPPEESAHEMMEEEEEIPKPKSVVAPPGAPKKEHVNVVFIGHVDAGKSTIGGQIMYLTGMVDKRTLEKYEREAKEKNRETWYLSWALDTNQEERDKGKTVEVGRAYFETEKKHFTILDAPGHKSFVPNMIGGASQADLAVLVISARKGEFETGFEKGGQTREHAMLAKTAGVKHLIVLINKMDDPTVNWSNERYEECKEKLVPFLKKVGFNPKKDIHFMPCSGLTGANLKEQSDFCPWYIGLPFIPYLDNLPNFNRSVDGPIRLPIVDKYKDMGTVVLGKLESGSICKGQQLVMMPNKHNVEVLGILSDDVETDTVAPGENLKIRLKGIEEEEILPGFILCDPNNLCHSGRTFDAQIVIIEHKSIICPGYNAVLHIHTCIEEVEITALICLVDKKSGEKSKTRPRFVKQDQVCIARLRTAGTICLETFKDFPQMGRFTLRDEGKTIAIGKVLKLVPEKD
T5 sequence (Q96SW2 whole entry): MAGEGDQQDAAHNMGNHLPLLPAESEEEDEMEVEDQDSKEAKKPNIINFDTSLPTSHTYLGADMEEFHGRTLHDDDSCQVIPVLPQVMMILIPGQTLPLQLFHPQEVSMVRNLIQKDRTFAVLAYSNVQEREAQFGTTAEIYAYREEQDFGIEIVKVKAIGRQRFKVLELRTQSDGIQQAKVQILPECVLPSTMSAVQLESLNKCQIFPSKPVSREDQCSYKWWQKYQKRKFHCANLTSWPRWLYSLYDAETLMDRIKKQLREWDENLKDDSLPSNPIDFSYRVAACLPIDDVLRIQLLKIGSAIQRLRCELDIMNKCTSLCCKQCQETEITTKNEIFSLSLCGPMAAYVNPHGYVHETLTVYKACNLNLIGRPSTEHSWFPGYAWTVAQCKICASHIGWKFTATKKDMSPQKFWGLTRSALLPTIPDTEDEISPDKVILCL
T5 sequence (Q16531 whole entry partner): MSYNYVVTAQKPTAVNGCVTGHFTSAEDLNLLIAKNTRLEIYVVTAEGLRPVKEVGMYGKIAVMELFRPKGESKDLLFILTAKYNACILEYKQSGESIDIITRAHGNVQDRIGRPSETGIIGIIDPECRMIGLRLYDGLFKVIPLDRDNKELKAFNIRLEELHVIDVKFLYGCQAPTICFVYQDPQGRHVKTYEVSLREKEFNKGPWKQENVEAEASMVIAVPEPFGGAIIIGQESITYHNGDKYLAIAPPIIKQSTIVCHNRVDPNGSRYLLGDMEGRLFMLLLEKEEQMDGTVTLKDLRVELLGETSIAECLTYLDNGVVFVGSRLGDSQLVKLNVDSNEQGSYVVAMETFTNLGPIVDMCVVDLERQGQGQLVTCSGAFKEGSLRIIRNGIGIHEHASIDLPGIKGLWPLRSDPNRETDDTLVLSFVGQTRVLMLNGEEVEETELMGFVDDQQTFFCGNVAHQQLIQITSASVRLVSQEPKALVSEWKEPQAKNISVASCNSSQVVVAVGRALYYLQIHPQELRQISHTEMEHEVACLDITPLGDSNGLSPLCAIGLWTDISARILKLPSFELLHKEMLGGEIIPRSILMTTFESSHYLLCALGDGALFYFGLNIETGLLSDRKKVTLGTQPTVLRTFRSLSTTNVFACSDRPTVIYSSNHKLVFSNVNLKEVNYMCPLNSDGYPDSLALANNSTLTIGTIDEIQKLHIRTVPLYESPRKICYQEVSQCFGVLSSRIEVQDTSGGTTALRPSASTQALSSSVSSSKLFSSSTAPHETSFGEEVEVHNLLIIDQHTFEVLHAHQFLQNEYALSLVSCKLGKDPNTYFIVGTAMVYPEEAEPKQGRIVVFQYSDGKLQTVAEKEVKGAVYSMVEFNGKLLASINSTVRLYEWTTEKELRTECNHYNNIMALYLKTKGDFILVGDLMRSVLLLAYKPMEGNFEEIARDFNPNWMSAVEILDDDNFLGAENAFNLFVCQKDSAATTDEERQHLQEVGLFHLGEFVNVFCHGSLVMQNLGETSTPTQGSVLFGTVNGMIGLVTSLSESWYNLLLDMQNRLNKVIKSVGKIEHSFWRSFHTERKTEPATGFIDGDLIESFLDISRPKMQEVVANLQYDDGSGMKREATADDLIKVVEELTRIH
Procedure, shortened: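 HEK293 CRISPR knock-in cells expressing LgBiT and GSPT1-HiBiT were seeded at 1000 cells/well and, after 18-24 h, treated with titrated compound plus endurazine (0.5× final) at 37 °C. Luminescence read after 6 h; loss of signal reflects GSPT1 degradation, giving DC50.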

[3] = tested on: HEK293 cells (ATCC CRL-1573); experiment: Cellular growth inhibition assay, HEK293 cells (Example 16); type: cell-based; conditions: Homo sapiens, 72 hours, CellTiter-Glo 2.0
[4] = biological target: T6, full-length BTK (amino acids 1-659) (Homo sapiens, UniProt Q06187); experiment: KdELECT binding assay, BTK
T6 construct: full-length BTK (amino acids 1-659); host or cells: mammalian cells (HEK-293)
T6 sequence (Q06187 whole entry, the tested form may be a part): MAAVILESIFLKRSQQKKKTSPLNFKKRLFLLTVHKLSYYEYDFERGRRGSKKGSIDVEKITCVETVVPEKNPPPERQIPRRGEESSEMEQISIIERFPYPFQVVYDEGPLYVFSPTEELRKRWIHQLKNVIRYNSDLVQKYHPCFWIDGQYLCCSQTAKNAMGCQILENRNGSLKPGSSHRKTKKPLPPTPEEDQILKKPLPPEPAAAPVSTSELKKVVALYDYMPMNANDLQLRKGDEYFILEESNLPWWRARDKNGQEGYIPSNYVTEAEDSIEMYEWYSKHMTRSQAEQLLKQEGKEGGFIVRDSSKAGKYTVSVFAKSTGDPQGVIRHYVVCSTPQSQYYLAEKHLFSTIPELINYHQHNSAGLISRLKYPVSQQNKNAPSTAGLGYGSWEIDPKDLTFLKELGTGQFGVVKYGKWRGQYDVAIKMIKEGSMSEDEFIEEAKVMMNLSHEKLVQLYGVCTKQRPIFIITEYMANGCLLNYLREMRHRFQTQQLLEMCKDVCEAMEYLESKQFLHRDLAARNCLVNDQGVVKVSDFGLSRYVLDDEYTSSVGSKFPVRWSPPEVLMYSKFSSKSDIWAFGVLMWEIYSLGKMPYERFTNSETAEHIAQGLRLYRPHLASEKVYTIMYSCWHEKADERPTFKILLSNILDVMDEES
Method: Exemplary compounds were tested for ability to bind to full-length BTK (amino acids 1-659; Accession Number NP_000052.1) expressed from mammalian cells. Compounds were tested using the KdELECT assay.
Kinase-tagged T7 phage strains were prepared in an E. coli host derived from the BL21 strain. E. coli were grown to log-phase and infected with T7 phage and incubated with shaking at 32° C. until lysis. The lysates were centrifuged and filtered to remove cell debris. The remaining kinases were produced in HEK-293 cells and subsequently tagged with DNA for qPCR detection. Streptavidin-coated magnetic beads were treated with biotinylated small molecule ligands for 30 minutes at room temperature to generate affinity resins for kinase assays. The liganded beads were blocked with excess biotin and washed with blocking buffer (SeaBlock (Pierce), 1% BSA, 0.05% Tween 20, 1 mM DTT) to remove unbound ligand and to reduce non-specific binding. Binding reactions were assembled by combining kinases, liganded affinity beads, and test compounds in 1× binding buffer (20% SeaBlock, 0.17× PBS, 0.05% Tween 20, 6 mM DTT). Test compounds were prepared as 111× stocks in 100% DMSO. Kd values were determined using an 11-point 3-fold compound dilution series with three DMSO control points. All compounds for Kd measurements are distributed by acoustic transfer (non-contact dispensing) in 100% DMSO. The compounds were then diluted directly into the assays such that the final concentration of DMSO was 0.9%. All reactions performed in polypropylene 384-well plate. Each was a final volume of 0.02 mL. The assay plates were incubated at room temperature with shaking for 1 hour and the affinity beads were washed with wash buffer (1× PBS, 0.05% Tween 20). The beads were then re-suspended in elution buffer (1× PBS, 0.05% Tween 20, 0.5 μM nonbiotinylated affinity ligand) and incubated at room temperature with shaking for 30 minutes. The kinase concentration in the eluates was measured by qPCR.

HeLa cells (ATCC CCL-2) = experiment: Cellular growth inhibition assay, HeLa cells (Example 16); type: cell-based; conditions: Homo sapiens, 72 hours, CellTiter-Glo 2.0

In the case of C=C(Cn1cc(CNc2cc(N3CCCC[C@H]3CCO)nc3c(CC)cnn23)ccc1=O)C(=O)N1CCN(c2nc(OC[C@@H]3CCCN3C)nc3c2CCN(c2cccc4cccc(Cl)c24)C3)C[C@@H]1CC#N [Compound A1-2], the “Concentration of Effector Protein Ligand” value (KRAS G12C; Matrix Buffer + Protein (KRAS G12C), Time 0 h) is reported as 328 nM, the “Concentration of Effector Protein Ligand” value (KRAS G12C; Matrix Buffer + Protein (KRAS G12C), Time 2 h) is reported as 556 nM and the “Concentration of Effector Protein Ligand” value (KRAS G12C; Matrix Buffer + Protein (KRAS G12C), Time 8 h) is reported as 1170 nM. The “Concentration of Effector Protein Ligand” value (KRAS G12C; Matrix Buffer + Protein (KRAS G12C), Time 24 h) was 2020 nM, the “Concentration of Effector Protein Ligand” value (KRAS G12C; Matrix Buffer, Time 0 h) was 55.8 nM and the “Concentration of Effector Protein Ligand” value (KRAS G12C; Matrix Buffer, Time 2 h) was 85.3 nM. For the same molecule, the “Concentration of Effector Protein Ligand” value (KRAS G12C; Matrix Buffer, Time 8 h) was 166 nM, the “Concentration of Effector Protein Ligand” value (KRAS G12C; Matrix Buffer, Time 24 h) was 406 nM and the “Percent Other Material” value [1] was 10%. For the same molecule, the “Percent of Addition-Conjugate Product” value [1] was 5%, the “Percent of Elimination-Conjugate Product” value [1] was 83% and the “Percent of Un-modified Protein” value [1] was 2%.

C=C(Cn1cc(CNc2cc(N3CCCC[C@H]3CCO)nc3c(CC)cnn23)ccc1=O)C(=O)N1CCC[C@@H](n2nc(-c3ccc(Oc4ccccc4)cc3)c3c(N)ncnc32)C1 [Compound A1-4] was tested, and the “Concentration of Effector Protein Ligand” value (BTK; Matrix Buffer + Protein (BTK), Time 0 h) was 17.8 nM, the “Concentration of Effector Protein Ligand” value (BTK; Matrix Buffer + Protein (BTK), Time 1 h) was 281 nM and the “Concentration of Effector Protein Ligand” value (BTK; Matrix Buffer + Protein (BTK), Time 4 h) was 506 nM. The “Concentration of Effector Protein Ligand” value (BTK; Matrix Buffer + Protein (BTK), Time 22 h) was 460 nM, the “Concentration of Effector Protein Ligand” value (BTK; Matrix Buffer, Time 0 h) was 4.16 nM and the “Concentration of Effector Protein Ligand” value (BTK; Matrix Buffer, Time 1 h) was 4 nM. The “Concentration of Effector Protein Ligand” value (BTK; Matrix Buffer, Time 4 h) was 4.49 nM, the “Concentration of Effector Protein Ligand” value (BTK; Matrix Buffer, Time 22 h) was 10.4 nM and the “Percent Other Material” value [2] was 0%. The “Percent of Addition-Conjugate Product” value [2] was 24%, the “Percent of Elimination-Conjugate Product” value [2] was 72% and the “Percent of Un-modified Protein” value [2] was 4%.

C=C(CN(C(=O)NCc1ccc2c(c1)CN(C1CCC(=O)NC1=O)C2=O)c1ccc(C)c(Cl)c1)C(=O)N1CCC[C@@H](n2nc(-c3ccc(Oc4ccccc4)cc3)c3c(N)ncnc32)C1 (stereo partly drawn) [Compound I-4] was tested, and the GI50 (HEK293 cells) was 1.5 to 10 µM and the GI50 (HeLa cells) was over 10 µM.

Molecule C=C(COc1cc(Cl)cc(NC(=O)NCc2ccc3c(c2)CN(C2CCC(=O)NC2=O)C3=O)c1)C(=O)N1CCC[C@@H](n2nc(-c3ccc(Oc4ccccc4)cc3)c3c(N)ncnc32)C1 (stereo partly drawn) [Compound I-114] has a DC50 (GSPT1) of 0.5 to 2.5 µM, a GI50 [3] of 0.5 to 1.5 µM and a Kd [4] of under 0.05 µM. It also gave a GI50 (HeLa cells (ATCC CCL-2)) of 1.5 to 10 µM.
